{
  "source": "patent US8394398B2",
  "about": "(Abbott Laboratories, priority 1997, dated 2013)",
  "key": {"[1]": {"tested_on": "human coronary artery endothelial cells (hCaEC)", "test": "3H-thymidine uptake proliferation assay, hCaEC", "assay_type": "cell-based", "details": "Homo sapiens, Endothelial cell, 3 h; read-out: hCaEC IC50 Mean ± SEM"}, "[2]": {"test": "Phase 1 multiple escalating dose study, QD intravenous infusion for 14 days, safety and pharmacokinetics", "assay_type": "in vivo, human", "details": "for AUC(0-inf) / Cmax / clearance / Vd / half-life / AUC: human, whole blood; for AUC: Day 14, blood", "description": "The present study was designed to evaluate the pharmacokinetics of zotarolimus following multiple dosing and to assess its safety while maximizing systemic exposure of healthy subjects. […] The study investigated pharmacokinetics and safety of zotarolimus in a Phase 1, multiple dose-escalation study following multiple intravenous infusions of 200, 400 and 800 μg doses, every day for fourteen consecutive days in healthy subjects.\nPhase 1, multiple-escalating dose, double-blind, placebo-controlled, randomized study. Seventy-two subjects equally divided in 3 once-daily (QD) regimens (200, 400 or 800 μg QD with 16 active and 8 placebo per regimen) were administered a 60-minute QD IV infusion of zotarolimus for 14 consecutive days. Blood samples were collected over 24 hours following the first dose, before dosing on days 10, 11, 12, 13, and for 168 hours following Day 14 dose. Urine samples were collected over 24 hours on days 1, 14, 16, 18 and 20. Blood and urine zotarolimus concentrations were determined using a validated LC/MS/MS method. Pharmacokinetic parameters were determined by compartmental analysis. All Day-AUC0-∞ (area under blood concentration-time curve from time 0 to infinity including all 14 doses) was calculated. Dose and time-linearity and achievement of steady-state were evaluated. Fraction of drug eliminated in urine was determined.\nWithin each group, subjects were equally divided at the two study sites with each site enrolling 12 subjects (zotarolimus, eight subjects; placebo four subjects). The dosing scheme within each dose group is presented below:\nSubjects received, under fasting conditions, a single 60-minute daily (QD) intravenous infusion of 200, 400, or 800 μg of zotarolimus or a matching intravenous infusion of placebo for Groups I, II and III, respectively on Study Days 1 through 14. The drug was administered via a syringe pump connected to a y-site device, which also infused 125-150 mL of 5% aqueous dextrose solution (D5W) over 60 minutes. The groups were dosed sequentially with at least 7 days separating the last dose of the previous group and the first dose of the next group during which time safety data from the previous group was analyzed. Dose escalation was dependent on the safety analysis of the lower dose group.\nFive (5)-mL blood samples were collected in potassium EDTA containing tubes to evaluate zotarolimus concentrations prior to dosing (0 hour), and at 0.25, 0.5, 1.0, 1 hour 5 min, 1.25, 1.5, 2, 3, 4, 8, 12, 18 and 24 hours after starting infusion on Study Days 1 and 14. Additional samples were collected at 36, 48, 72, 96, 120, 144 and 168 hours after starting infusion on Study Day 14 and before dosing on Days 10, 11, 12 and 13. Urine was collected in containers without preservatives over the following intervals: 0 to 6, 6 to 12, 12 to 18 and 18 to 24 hours after starting the infusion on Study Days 1, 14, 16, 18 and 20.\nBlood and urine concentrations of zotarolimus were determined using a validated liquid/liquid extraction HPLC tandem mass spectrometric method (LC-MS/MS). The lower limit of quantification of zotarolimus was 0.20 ng/mL using 0.3 mL blood sample and 0.50 ng/mL using 0.3 mL urine sample.\nSafety was evaluated based on adverse event, physical examination, vital signs, ECG, injection site and laboratory tests assessments\nThe pharmacokinetic parameter values of zotarolimus were estimated for individual subjects using compartmental analysis. Data from the first dose on Study Day 1, the last dose on Study Day 14 and the trough concentrations on Study Days 10, 11, 12 and 13 were simultaneously modeled for each individual subject. […]"}, "human monocytes": {"tested_on": "human monocytes", "test": "cytokine production by LPS-stimulated human monocytes (ELISA)", "assay_type": "cell-based", "description": "Experiments were performed to determine the effects of zotarolimus, sirolimus and dexamethasone on the production of TNFα, IL-6 and MCP-1 by activated human monocytes In addition to monocytes and macrophages two other key cell types are involved in the etiology of restenosis, arterial smooth muscle and endothelial cells. These cells are activated and produce cytokines in response to TNFα. […] The activation of cytokine production by human coronary artery smooth muscle and endothelial cells following TNFα treatment was determined by measuring interleukine-8 (IL-8), MCP-1 and IL-6 production. As shown by the results of the experiments described below, the ability of these compounds to inhibit the production of cytokines supports their use in combination as anti-restenotic agents since these cytokines play a role in the development of restenosis. […] After 24 hours, the supernatants were carefully collected and TNFα, IL-6 and MCP-1 levels determined by ELISA. Primary cultures of human coronary artery endothelial and smooth muscle cells were obtained from Cambrex and maintained as described by the vendor. […] After 24 hours the supernatants were removed and replaced with media containing TNFα (5 ng/ml) in the presence and absence of various concentrations of zotarolimus, dexamethasone or sirolimus. The cells were incubated for 24 hours and the supernatants carefully removed and frozen until measurement. Cytokine levels were measured in the supernatants by sandwich ELISA."}},
  "note": "Read-outs that look alike come from different tables or passages of the source.",
  "data": [
    {"smiles": "CO[C@H]1C[C@@H]2CC[C@@H](C)[C@@](O)(O2)C(=O)C(=O)N2CCCC[C@H]2C(=O)O[C@H]([C@H](C)C[C@@H]2CC[C@H](n3cnnn3)[C@H](OC)C2)CC(=O)[C@H](C)/C=C(\\C)[C@@H](O)[C@@H](OC)C(=O)[C@H](C)C[C@H](C)/C=C/C=C/C=C/1C", "note": "[zotarolimus]", "values": [
      {"measurement": "IC50", "setting": "[1]", "value": "3.2 ± 0.5", "unit": "nM"},
      {"measurement": "fraction of dose recovered in the urine", "setting": "[2]; 800 μg QD dose group, within a 24-hour period on Day 1 and Day 14", "value": "approximately 0.1%"},
      {"measurement": "most common treatment-emergent adverse events", "setting": "[2]; 200, 400, 800 μg QD IV for 14 days", "value": "pain, headache, injection site reaction, dry skin, abdominal pain, diarrhea and rash"},
      {"measurement": "V1, range of means over the studied regimens", "setting": "[2]; 200-800 μg QD IV for 14 days", "value": "11.3 to 13.1", "unit": "L"},
      {"measurement": "steady state for QD dosing reached", "setting": "[2]; first trough samples measured on Day 10", "value": "≤ 10", "unit": "days"},
      {"measurement": "AUC(0-inf)", "setting": "[2]; intravenous, 200 μg QD dose group, read-out: median All Day −AUC0-∞", "value": 677, "unit": "ng·h/mL"},
      {"measurement": "AUC(0-inf)", "setting": "[2]; intravenous, 400 μg QD dose group, read-out: median All Day −AUC0-∞", "value": 1440, "unit": "ng·h/mL"},
      {"measurement": "AUC(0-inf)", "setting": "[2]; intravenous, 800 μg QD dose group, read-out: median All Day −AUC0-∞", "value": 2400, "unit": "ng·h/mL"},
      {"measurement": "Cmax", "setting": "[2]; 200 μg QD IV infusion for 14 days, blood, secondary predicted parameter", "value": "11.2 ± 1.1", "unit": "ng/mL"},
      {"measurement": "clearance", "setting": "[2]; 200 μg QD IV infusion for 14 days, blood, secondary predicted parameter, read-out: CL (converted)", "value": 70, "unit": "mL/min"},
      {"measurement": "Vd", "setting": "[2]; 200 μg QD IV infusion for 14 days, blood, secondary predicted parameter, read-out: Vss", "value": "92.5 ± 13", "unit": "L"},
      {"measurement": "half-life", "setting": "[2]; 200 μg QD IV infusion for 14 days, blood, harmonic mean ± pseudo-standard deviation, read-out: t½ (converted)", "value": "24.7 ± 4.6", "unit": "h"},
      {"measurement": "AUC", "setting": "[2]; 200 μg QD IV infusion, secondary predicted parameter", "value": "49 ± 6.2", "unit": "ng·h/mL"},
      {"measurement": "Cmax", "setting": "[2]; 400 μg QD IV infusion for 14 days, blood, secondary predicted parameter", "value": "21.4 ± 2.4", "unit": "ng/mL"},
      {"measurement": "clearance", "setting": "[2]; 400 μg QD IV infusion for 14 days, blood, secondary predicted parameter, read-out: CL (converted)", "value": 66.7, "unit": "mL/min"},
      {"measurement": "Vd", "setting": "[2]; 400 μg QD IV infusion for 14 days, blood, secondary predicted parameter, read-out: Vss", "value": "112 ± 21.1", "unit": "L"},
      {"measurement": "half-life", "setting": "[2]; 400 μg QD IV infusion for 14 days, blood, harmonic mean ± pseudo-standard deviation, read-out: t½ (converted)", "value": "31 ± 4.6", "unit": "h"},
      {"measurement": "AUC", "setting": "[2]; 400 μg QD IV infusion, secondary predicted parameter", "value": "104 ± 19", "unit": "ng·h/mL"},
      {"measurement": "Cmax", "setting": "[2]; 800 μg QD IV infusion for 14 days, blood, secondary predicted parameter", "value": "38.7 ± 6.3", "unit": "ng/mL"},
      {"measurement": "clearance", "setting": "[2]; 800 μg QD IV infusion for 14 days, blood, secondary predicted parameter, read-out: CL (converted)", "value": 76.7, "unit": "mL/min"},
      {"measurement": "Vd", "setting": "[2]; 800 μg QD IV infusion for 14 days, blood, secondary predicted parameter, read-out: Vss", "value": "118 ± 18.7", "unit": "L"},
      {"measurement": "half-life", "setting": "[2]; 800 μg QD IV infusion for 14 days, blood, harmonic mean ± pseudo-standard deviation, read-out: t½ (converted)", "value": "30 ± 4.1", "unit": "h"},
      {"measurement": "AUC", "setting": "[2]; 800 μg QD IV infusion, secondary predicted parameter", "value": "180 ± 17.4", "unit": "ng·h/mL"},
      {"measurement": "clearance", "setting": "[2]; 200-800 μg QD IV for 14 days, read-out: CL, range of means over the studied regimens", "value": "66.7 to 76.7", "unit": "mL/min"},
      {"measurement": "Vd", "setting": "[2]; 200-800 μg QD IV for 14 days, read-out: Vss, range of means over the studied regimens", "value": "92.5 to 118", "unit": "L"},
      {"measurement": "half-life", "setting": "[2]; 200-800 μg QD IV for 14 days, read-out: terminal elimination t1/2, range of means over the studied regimens", "value": "24.7 to 31", "unit": "h"},
      {"measurement": "AUC(0-inf)", "setting": "[2]; 200-800 μg QD IV, time 0 to infinity including all 14 doses, read-out: All Day-AUC0-∞, range over the studied regimens", "value": "677 to 2400", "unit": "ng·h/mL"},
      {"measurement": "dose proportionality and time dependence of pharmacokinetics", "setting": "[2]; intravenously for 14 consecutive days", "value": "dose proportional and time invariant"},
      {"measurement": "MCP-1 production by human monocytes in vitro", "setting": "human monocytes; FIG. 10", "value": "dose-dependently inhibit MCP-1 production"},
      {"measurement": "production of TNFα and IL-6 by human monocytes", "setting": "human monocytes; FIGS. 10 and 11", "value": "not demonstrated"},
      {"measurement": "Maximal Inhibitory Activity, IL-6", "setting": "human monocytes; Monocytes, 24 hours", "value": "− (− indicates maximal inhibitory activity less than 50% of control)"},
      {"measurement": "Maximal Inhibitory Activity, MCP-1", "setting": "human monocytes; Monocytes, 24 hours", "value": "+++ (+++ indicates maximal inhibitory activity of 75-100% of control)"},
      {"measurement": "Maximal Inhibitory Activity, TNF", "setting": "human monocytes; Monocytes, 24 hours", "value": "− (− indicates maximal inhibitory activity less than 50% of control)"}
    ]}
  ]
}
